Assay results from patent US20090123501A1, “INHIBITION OF THE SH2-DOMAIN CONTAINING PROTEIN TYR-PHOSPHATASE, SHP-1, TO ENHANCE VACCINES” (Baylor College of Medicine, priority 2007, published 2009).

Experiments:
B16 tumors = assay: DC vaccination of mice bearing ectopic B16 melanoma tumors; type: in vivo, C57BL/6 mice
Method: The B16 melanoma, which is both aggressive and poorly immunogenic, expresses tyrosinase related protein-2 (Trp-2) of which peptide, […] (SEQ ID NO:13), is recognized by CD8^+ T cells in the context of H-2K^b. B16 represents a much more difficult tumor to treat than TRAMP and is considered the “gold standard” for ectopic tumor models in the C57BL/6 background. BMDCs were prepared as described above, pulsed with the Trp-2 and then transduced with either Ad5-SHP-1 shRNA or the control Ad5-scrambled-shRNA virus at 40,000 viral particles/cell. 6-8 week C57BL/6 mice, bearing B16 tumors (5×10^5 cells injected s.c. on the dorsal flank three days prior to vaccination), were given a single i.p. vaccination with 2×10^6 treated DCs or left untreated. Tumors were measured every 2-4 days until termination of the experiment and tumor volume was calculated as described above. […] To determine if this difference was statistically significant, ANOVA and Tukey-Kramer HSD multiple comparisons test were performed.
BMDCs were prepared as described above, pulsed with the Trp-2 and then transduced with either Ad5-SHP-1 shRNA or the control Ad5-scrambled-shRNA virus at 40,000 viral particles/cell. […] Tumors were measured every 2-4 days until termination of the experiment and tumor volume was calculated as described above. […]

Akt = assay: LPS stimulated Akt signaling in BMDCs, western blot; type: cell-based, C57BL/6 mice; conditions: CD11c positive BMDCs
Method: DC survival has been linked with activation of Akt/protein kinase B (PKB) family proteins, major effectors of phosphatidylinositol 3-kinase (PI3K) family members. LPS stimulated Akt signaling BMDCs was examined to determine if SHP-1 mediated survival might be working through this mechanism. MACS sorted for CD11c positive BMDCs were infected with either Ad5-SHP-1-shRNA or Ad5-scrambled-shRNA or left untreated. Cells (10^7) per group were treated with 1 μg/mL LPS for the times indicated or left untreated. Lysates were analyzed by western blot for phosphorylated Akt. […] This observation provides a mechanism for the increased survival seen when SHP-1 signaling was inhibited, in certain embodiments (FIG. 8). LPS stimulation also appears to enhance the total level of SHP-1 protein in DCs as shown by the SHP-1 blot for cells treated with Ad5-scrambled-shRNA.

BMDCs [1] = assay: In vivo DC migration out of the footpad, luciferase IVIS imaging; parameters: species or system albino C57BL/6 mice; conditions: 2×10^6 transduced BMDCs injected into footpad
Method: To determine if SHP-1 inhibition enhanced DC migration in vivo, BMDCs were prepared as described above but were transduced with an adenovirus expressing a clickbeetle red-shifted luciferase in addition to either Ad5-SHP-1-shRNA or Ad5-scrambled-shRNA. Transduced cells (2×10^6) were injected into the contralateral footpads of tyrosinase-deficient albino C57BL/6 mice (B6(Cg)-Tyr^c-2J/J, Jackson Laboratory). At the specified intervals mice were injected i.p. with 100 μl of 10 mg/mL luciferin and imaged in vivo using IVIS® (Caliper Life Sciences, Hopkinton, Mass.).

BMDCs [2] = assay: DC survival by annexin V and propidium iodide flow cytometry; type: cell-based, C57BL/6 mice; conditions: CD11c purified BMDCs
Method: Primary bone marrow-derived dendritic cells (BMDCs) were prepared from wild type mice in the following manner: Bone marrow cells were flushed from the femurs and tibias of C57BL/6 mice and cultured for 6 days in RPMI media supplemented with 10% FBS, 10 ng/mL IL-4 and 10 ng/mL GMCSF along with antibiotics. On day 6, dendritic cells (DCs) were either purified by magnetic bead assisted cell sorting (MACS; Miltenyi Biotec, Auburn, Calif.) prior to adenoviral transduction, or used as unpurified bulk DCs that were then transduced with adenovirus.
BMDCs were prepared as described above and purified by CD11c (a marker for DC) MACS. Purified DCs were transduced with either Ad5-SHP1-shRNA or Ad5-scrambled-shRNA or left untreated and the virus was washed away following a two hour exposure. Cell survival was determined at 24 hours, 48 hours and 72 hours after infection by annexin V and propidium iodide (PI) staining and analyzed by flow cytometry. Annexin V binds to phosphatidylserine and is an early marker of apoptosis. PI is a DNA intercalating dye that can only enter cells when their membrane is integrity is disrupted and is a marker of cells late in the apoptotic process. Viral infection of DCs causes cells to undergo apoptosis where approximately 50% were dead or dying within the first 24 hours and 85% were dead or dying by 72 hours post-infection (FIG. 8 Ad5-scrambled-shRNA). […]

Sequence: CACCGGAGCATGACACAGCAGAATACGAATATTCTGCTGTGTCATGCTCC (chemistry not given here) [Ad5-SHP-1-shRNA]
- B16 mean tumor volume (growth curves) (B16 tumors; Trp-2 pulsed DCs, 40,000 viral particles/cell, single i.p. 2×10^6 DCs, beginning at day 18): markedly smaller mean tumor volumes
- B16 mean tumor volume (ANOVA) (B16 tumors; Trp-2 pulsed DCs, compared with either control group): significantly lower mean tumor volume
- steady state expression of total Akt protein (Akt): enhanced the steady state expression of total Akt protein
- LPS mediated Akt phosphorylation (Akt; 1 μg/mL LPS): enhanced LPS mediated Akt phosphorylation
- DCs in the footpad at 24 hours post-injection (BMDCs [1]): undetectable in the footpad by 24 hours post injection
- time by which DCs are seen to migrate out of the footpad (BMDCs [1]; post-injection): ≤ 2 h
- cells dead or dying (BMDCs [2]; by 72 hours post-infection): 55%
- cells dead or dying (BMDCs [2]; within the first 24 hours post-infection): 35%
